These results are taken from paper PMC9029323, “In Silico Identification of Novel Inhibitors Targeting the Homodimeric Interface of Superoxide Dismutase from the Dental Pathogen Streptococcus mutans” (Antioxidants, 2022).

The target in data set [1] is T1, Mn–SOD from rat mitochondria (Rattus norvegicus, UniProt P07895).
T1 construct: made in house
T1 sequence (P07895 25-222): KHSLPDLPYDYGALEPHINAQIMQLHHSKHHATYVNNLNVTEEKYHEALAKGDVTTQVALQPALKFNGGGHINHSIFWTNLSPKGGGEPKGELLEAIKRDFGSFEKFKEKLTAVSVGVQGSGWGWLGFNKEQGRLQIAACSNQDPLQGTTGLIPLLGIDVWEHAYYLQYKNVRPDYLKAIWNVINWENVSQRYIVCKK
Put plainly: SOD activity assay with Mn-SOD. Type of data set: biochemical.
Excerpt: (§1) Purified recombinant forms of SmSOD and StSOD were obtained through a heterologous expression system constituted by the Escherichia coli BL21(DE3) strain transformed with appropriate expression vectors, vSmSOD [11] or vStSOD [12]. These pET-22b(+)- or pET-28b(+)-derived plasmids led to the production of recombinant forms of SmSOD or StSOD, respectively fused to a His-tail, useful for their one-step purification by affinity chromatography, as previously described [11, 12]. The improvement of Mn uptake by SmSOD was realised as previously described [11, 12, 13]. The resulting metal (Fe and Mn) content in the cambialistic enzyme was determined by graphite furnace atomic absorption spectrometry with a Shimadzu ACS-6100 auto sampler [46]. Fe-SOD from Escherichia coli (cat. SRP6107) and the Cu/Zn-SOD from bovine erythrocytes (cat. 574594) were purchased from Sigma–Aldrich. A recombinant form of the eukaryal Mn–SOD from rat mitochondria was prepared as previously described [19]. Protein concentration was determined by the Bradford method, using bovine serum albumin as standard [47]. […] One unit of SOD activity was defined as the amount of enzyme that caused 50% inhibition of cytochrome c reduction.

In data set [2] the target is cambialistic StSOD (Streptococcus thermophilus, UniProt Q5M4Z1). Put plainly: SOD activity assay with StSOD. The format is biochemical.
Sequence of cambialistic StSOD (Q5M4Z1 entry or part of it): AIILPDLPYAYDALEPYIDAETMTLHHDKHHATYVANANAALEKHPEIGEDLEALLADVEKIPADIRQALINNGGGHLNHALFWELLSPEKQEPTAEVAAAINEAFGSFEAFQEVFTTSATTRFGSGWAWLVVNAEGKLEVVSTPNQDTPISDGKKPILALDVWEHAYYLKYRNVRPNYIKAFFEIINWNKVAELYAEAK
Excerpt: as §1
The target of data set [3] is T2, SmSOD homodimer (Streptococcus mutans serotype c, UniProt P09738).
T2 construct: His-tail; made in house; host or cells: Escherichia coli BL21(DE3), vector vSmSOD (pET-22b(+)-derived)
T2 sequence (P09738 2-203): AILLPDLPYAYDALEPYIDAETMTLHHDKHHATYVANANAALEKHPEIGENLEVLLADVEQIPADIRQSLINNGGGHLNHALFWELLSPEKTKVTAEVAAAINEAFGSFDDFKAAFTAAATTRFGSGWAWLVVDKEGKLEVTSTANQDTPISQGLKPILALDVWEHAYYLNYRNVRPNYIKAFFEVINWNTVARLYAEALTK
Put plainly: Size exclusion chromatography (gel-filtration) of SmSOD. The procedure:
The oligomerization status of SmSOD was analyzed by gel-filtration on a Superdex^TM 75 10/300 GL column (GE Healthcare) connected to an FPLC^TM system. The column was equilibrated and eluted at 0.5 mL/min at room temperature (20–24 °C) with a 20 mM Tris•HCl buffer, pH 7.8, containing 150 mM KCl and 1% (v/v) DMSO. However, where indicated, the equilibration and elution buffer also contained 200 µM inhibitor. The protein molecular mass standards used for calibration of the size exclusion chromatography were bovine serum albumin (68 kDa), egg albumin (46 kDa), carbonic anhydrase (30 kDa) and cytochrome c (12.4 kDa).
Figure 4 Effect of ALS-31 on gel-filtration of SmSOD. A protein sample of SmSOD, 63 µM in 20 mM Tris•HCl buffer, pH 7.8, supplemented with 150 mM KCl and 1% (v/v) DMSO, was untreated or incubated at room temperature for 20 min with 200 µM ALS-31. The protein sample was then loaded on a Superdex 75 10/300 column and the elution profile was followed by a continuous absorbance monitoring at 280 nm. Untreated SmSOD (black line); SmSOD incubated with 200 µM ALS-31 without (green line) or after the addition of 200 µM ALS-31 in the elution buffer (red line). The elution volumes of bovine serum albumin (9.56 mL), egg albumin (10.44 mL), carbonic anhydrase (11.72 mL) and cytochrome c (13.51 mL), used as standard protein markers, are indicated by inverted triangles. Their position was unaffected by the addition of ALS-31 in equilibration and elution buffer.
Background: SEC sorts molecules by how far they enter the pores of the column.

The target in data set [4] is T3, SmSOD (Streptococcus mutans serotype c, UniProt P09738).
T3 construct: His-tail; made in house; host or cells: Escherichia coli BL21(DE3), vector vSmSOD (pET-22b(+)-derived)
T3 sequence (P09738 2-203): as above
Put plainly: SOD activity assay (inhibition of cytochrome c reduction, xanthine/xanthine oxidase method) with SmSOD. The format is biochemical.
Excerpt: as §1

The target of data set [5] is T4, Fe-SOD from Escherichia coli (Escherichia coli, UniProt P0AGD3).
T4 construct: purchased Sigma–Aldrich SRP6107
T4 sequence (P0AGD3 2-193): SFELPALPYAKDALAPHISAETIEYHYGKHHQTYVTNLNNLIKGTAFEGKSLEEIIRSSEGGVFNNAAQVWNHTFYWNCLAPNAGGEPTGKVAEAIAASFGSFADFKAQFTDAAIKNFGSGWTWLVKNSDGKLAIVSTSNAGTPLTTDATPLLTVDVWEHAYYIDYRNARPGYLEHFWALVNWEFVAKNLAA
In words: SOD activity assay with Fe-SOD. Type of data set: biochemical.
Excerpt: as §1

The test system of data set [6] is fibroblast cell line BJ-5ta. In words: Colony-forming assay. The format is cell-based, human. Conditions: up to 100 µM. The protocol:
The cell line BJ-5ta, a human skin fibroblast immortalised with the human telomerase reverse transcriptase (Cell Culture Facility of CEINGE, Naples, Italy), was cultured in a 4:1 mixture of DMEM and Medium 199 supplemented with 4 mM L-glutamine, 4.5 g/L glucose, 1.5 g/L sodium bicarbonate, 10% FBS, 100 IU/mL penicillin G and […] streptomycin in a humidified incubator at 37 °C under 5% CO2 atmosphere. Cells were split and seeded every 3 days and used during their exponential phase of growth. Cell treatments were usually carried out after 24 h from plating. To obtain total protein extracts from BJ5-ta, cells were seeded into six-well plates (3 × 10^5 cells/plate) for 24 h at 37 °C and then treated with ALS-31 or 0.5% (v/v) DMSO. After treatment, cells were harvested, washed with PBS and then lysed in ice-cold modified radio immunoprecipitation assay (RIPA) buffer (50 mM Tris•HCl, pH 7.4, 150 mM NaCl, 1% Nonidet P-40, 0.25% sodium deoxycholate, 1 mM Na3VO4 and 1 mM NaF), supplemented with protease inhibitors and incubated for 30 min on ice. […]
A colony-forming assay was performed as previously described, with some modifications. […] Cells were photographed with a digital camera (Canon PowerShot G9); the number of colonies (≥50 cells per colony) was counted using ImageJ 1.42q software.

Data set [7] deals with Streptococcus mutans ATCC-700610. Put plainly: Broth micro-dilution antibacterial assay (planktonic growth). The format is cell-based. The note with it: 24 h. The procedure:
The bacterial strain used for antimicrobial assays was Streptococcus mutans ATCC-700610. The strain was stored in 15% (v/v) glycerol stocks at −80 °C. Before each experiment, cells were subcultured from the stocks into Trypticase Soy Agar (TSA, cat. PA-254051.06) with 5% Sheep Blood (Becton Dickinson, Sparks, NV, USA) plates at 37 °C in 5% CO2 atmosphere for 48 h.
The antibacterial activity of compounds ALS-31 or ALS-31-9 was assayed in S. mutans cultures by a standard broth micro-dilution method in 96-well polystyrene plates using Brain-Heart Infusion broth (BHI, cat. 255003, Becton Dickinson, Sparks, NV, USA). One hundred microliters of bacterial suspension adjusted to approximately 1.5 × 10^6 CFU/mL were incubated with 100 µL of serial dilutions of the compounds dissolved in final 1.0% (v/v) DMSO as a vehicle. The plates were incubated at 37 °C in 5% CO2 atmosphere for 24 h under shaking (300 rpm). The medium turbidity was measured by a spectrophotometer at 595 nm (Bio-Rad Laboratories Inc., Hercules, CA, USA). Compound-free wells in 1.0% (v/v) DMSO were used as controls (100% planktonic growth), and antibacterial activity was expressed as a percentage of residual growth. Chlorhexidine acetate (CHX, cat. 51094, Sigma-Aldrich, St. Louis, MO, USA) solution (1 mg/mL) was prepared and included as control for the assay of S. mutans’ susceptibility (MIC referred to [51]). Each compound was tested in triplicate; each experiment was performed twice.
A general note: Dilution methods test growth across graded concentrations, often in twofold steps.

“Also recorded” adds a separate entry of the source. Like-named read-outs stand apart in the source and are kept apart here.

For `CSCCC(NC(=O)COc1ccc2c3c(c(=O)oc2c1)CCCC3)C(=O)NCCC(=O)O` (stereo not shown) [ALS-31], the IC50 in data set [1] is 161 ± 56 µM; in data set [2] it was 218 ± 50 µM; in data set [4] (Mn-basal SmSOD, read-out: IC50 (concentration leading to 50% inhibition of SmSOD activity)) it was 159 µM; in data set [4] (Mn-enriched SmSOD, basal Mn content 2.7-fold improved after metal exchange, read-out: IC50 in the Mn-enriched enzyme), 262 ± 11 µM; in data set [5] it was 123 ± 20 µM. Besides, the “calculated molecular mass of SmSOD major peak” value in data set [3] (200 µM compound in equilibration and elution buffer, untreated SmSOD 51.8 kDa) was 23.2 kDa. Moreover, the “quaternary structure of SmSOD in gel-filtration” value in data set [3] (200 µM compound in protein sample and elution buffer) is reported as “dissociation of the SmSOD homodimer in two monomers”. Besides, the “elution of SmSOD compared with untreated sample” value in data set [3] (SmSOD incubated with 200 µM compound before loading, no compound in elution buffer) is on record as “almost identical elution”. Moreover, the remaining activity at 20 µM in data set [4] (20 µM compound, activity of SmSOD in the absence of compound equal to 100, read-out: Residual SOD Activity (%) in the Presence of [Compound]) was 92%. In addition, the remaining activity at 50 µM in data set [4] (50 µM compound, activity of SmSOD in the absence of compound equal to 100, Table 1, read-out: Residual SOD Activity (%) in the Presence of [Compound]) came to 71%. Further, in data set [4] (read-out: Residual SOD Activity (%) in the Presence of [Compound]), the remaining activity at 100 µM is 56%. Moreover, in data set [4] (screening concentrations or inhibition profile up to 300 µM), the “effect on SmSOD activity (in words)” value was “dose-dependent reduction; also recorded: evident dose-dependent inhibition”. Moreover, the “toxicity for growth / viability of fibroblast cell line BJ-5ta (colony formation)” value in data set [6] is “not affected; also recorded: not toxic”. Also, the “percentage of planktonic growth of S. mutans” value was determined as 74.3 ± 4.5% in data set [7] (104 µM) and 50.7 ± 4.2% in data set [7] (209 µM). Also, the “concentration up to which no antimicrobial activity is displayed in S. mutans suspensions” value in data set [7] is listed as ≤ 50 µM.
